Experimental data published in ChEMBL document CHEMBL5365530, “Identification of a Novel, Potent, and Orally Bioavailable Guanidine-Based SHP2 Allosteric Inhibitor from Virtual Screening and Rational Structural Optimization for the Treatment of KRAS Mutant Cancers” (J Med Chem, 2023).
Values belong to the compound of their own block, whether it stands above or below them.

How the values were obtained:
[1] = target: T1, Tyrosine-protein phosphatase non-receptor type 11 (Homo sapiens, UniProt Q06124); experiment: Allosteric Inhibition of H2N-LN(pY)IDLDLV(dPEG8)LST(pY)ASINFQKASINFQK-amide-activated SHP2 (unknown origin) using DiFMUP as substrate pretreated with enzyme for 1 hr followed by substrate addition and measured after 20 mins by fluorescence based analysis
T1 sequence (Q06124 whole entry): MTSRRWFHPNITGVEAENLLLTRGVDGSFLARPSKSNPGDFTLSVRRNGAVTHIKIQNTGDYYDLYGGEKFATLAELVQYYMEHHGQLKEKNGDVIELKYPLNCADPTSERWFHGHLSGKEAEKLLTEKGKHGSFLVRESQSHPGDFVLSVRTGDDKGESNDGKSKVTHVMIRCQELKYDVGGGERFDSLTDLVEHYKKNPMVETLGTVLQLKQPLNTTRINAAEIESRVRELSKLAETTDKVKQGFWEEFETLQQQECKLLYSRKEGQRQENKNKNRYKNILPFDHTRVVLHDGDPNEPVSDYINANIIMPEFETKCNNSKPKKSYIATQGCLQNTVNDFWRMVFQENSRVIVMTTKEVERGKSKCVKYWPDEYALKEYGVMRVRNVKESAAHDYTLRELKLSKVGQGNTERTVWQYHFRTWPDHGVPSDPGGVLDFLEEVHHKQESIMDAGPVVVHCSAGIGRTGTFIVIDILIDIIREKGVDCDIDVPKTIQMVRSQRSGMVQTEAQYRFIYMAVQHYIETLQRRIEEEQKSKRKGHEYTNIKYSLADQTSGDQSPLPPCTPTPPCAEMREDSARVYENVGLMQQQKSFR

[2] = target: T1, Tyrosine-protein phosphatase non-receptor type 11; experiment: Inhibition of SHP2 PTP domain (unknown origin) using DiFMUP as substrate pretreated with enzyme for 20 mins followed by substrate addition and measured for 2 hrs by fluorescence based analysis
[3] = target: Tyrosine-protein phosphatase non-receptor type 6 (Homo sapiens, UniProt P29350); experiment: Inhibition of SHP1 (unknown origin) using DiFMUP as substrate pretreated with enzyme for 20 mins followed by substrate addition and measured for 2 hrs by fluorescence based analysis
MIA PaCa-2 [4] = experiment: Antiproliferative activity against human MIA PaCa-2 cells harboring KRASG12C mutant assessed as inhibition of cell growth incubated for 72 hrs by CellTiter-LumiII Luminescent assay; type: functional, cell-based; conditions: MIA PaCa-2, 72 h
KYSE-520 cell line = experiment: Antiproliferative activity against human KYSE-520 cells assessed as inhibition of cell growth incubated for 72 hrs by CellTiter-LumiII Luminescent assay; type: functional, cell-based; conditions: KYSE-520, 72 h
MIA PaCa-2 [5] = experiment: Induction of apoptosis in human MIA PaCa-2 cells assessed as proportion of viable cells at 2.5 uM incubated for 72 hrs by AnnexinV-FITC/PI staining based flow cytometry (reference value: 98.19%); type: functional
MIA PaCa-2 [6] = experiment: Induction of apoptosis in human MIA PaCa-2 cells assessed as proportion of early apoptotic cells at 2.5 uM incubated for 72 hrs by AnnexinV-FITC/PI staining based flow cytometry (reference value: 0.26%); type: functional
MIA PaCa-2 [7] = experiment: Induction of apoptosis in human MIA PaCa-2 cells assessed as proportion of late apoptotic cells at 2.5 uM incubated for 72 hrs by AnnexinV-FITC/PI staining based flow cytometry (reference value: 1.36%); type: functional
MIA PaCa-2 [8] = experiment: Induction of apoptosis in human MIA PaCa-2 cells assessed as proportion of necrotic cells at 2.5 uM incubated for 72 hrs by AnnexinV-FITC/PI staining based flow cytometry (reference value: 0.19%); type: functional
MIA PaCa-2 [9] = experiment: Induction of apoptosis in human MIA PaCa-2 cells assessed as proportion of viable cells at 5 uM incubated for 72 hrs by AnnexinV-FITC/PI staining based flow cytometry (reference value: 98.19%); type: functional
MIA PaCa-2 [10] = experiment: Induction of apoptosis in human MIA PaCa-2 cells assessed as proportion of early apoptotic cells at 5 uM incubated for 72 hrs by AnnexinV-FITC/PI staining based flow cytometry (reference value: 0.26%); type: functional
MIA PaCa-2 [11] = experiment: Induction of apoptosis in human MIA PaCa-2 cells assessed as proportion of late apoptotic cells at 5 uM incubated for 72 hrs by AnnexinV-FITC/PI staining based flow cytometry (reference value: 1.36%); type: functional
MIA PaCa-2 [12] = experiment: Induction of apoptosis in human MIA PaCa-2 cells assessed as proportion of necrotic cells at 5 uM incubated for 72 hrs by AnnexinV-FITC/PI staining based flow cytometry (reference value: 0.19%); type: functional
MIA PaCa-2 [13] = experiment: Induction of apoptosis in human MIA PaCa-2 cells assessed as proportion of viable cells at 10 uM incubated for 72 hrs by AnnexinV-FITC/PI staining based flow cytometry (reference value: 98.19%); type: functional
MIA PaCa-2 [14] = experiment: Induction of apoptosis in human MIA PaCa-2 cells assessed as proportion of early apoptotic cells at 10 uM incubated for 72 hrs by AnnexinV-FITC/PI staining based flow cytometry (reference value: 0.26%); type: functional
MIA PaCa-2 [15] = experiment: Induction of apoptosis in human MIA PaCa-2 cells assessed as proportion of late apoptotic cells at 10 uM incubated for 72 hrs by AnnexinV-FITC/PI staining based flow cytometry (reference value: 1.36%); type: functional
MIA PaCa-2 [16] = experiment: Induction of apoptosis in human MIA PaCa-2 cells assessed as proportion of necrotic cells at 10 uM incubated for 72 hrs by AnnexinV-FITC/PI staining based flow cytometry (reference value: 0.19%); type: functional
[17] = Half life in ICR mouse at 1 mg/kg, iv measured for 24 hrs by LC-MS/MS analysis; type: ADME, organism-based; conditions: in vivo
[18] = Clearance in ICR mouse at 1 mg/kg, iv measured for 24 hrs by LC-MS/MS analysis; type: ADME, organism-based; conditions: in vivo
[19] = Volume of distribution in ICR mouse at 1 mg/kg, iv measured for 24 hrs by LC-MS/MS analysis; type: ADME, organism-based; conditions: in vivo
[20] = AUC in ICR mouse at 1 mg/kg, iv measured for 24 hrs by LC-MS/MS analysis; type: ADME, organism-based; design: time 24 hrs, dose 1 mg/kg, route iv; conditions: in vivo
[21] = Half life in ICR mouse at 10 mg/kg, po measured for 24 hrs by LC-MS/MS analysis; type: ADME, organism-based; conditions: in vivo
[22] = Tmax in ICR mouse at 10 mg/kg, po measured for 24 hrs by LC-MS/MS analysis; type: ADME, organism-based; conditions: in vivo
[23] = Cmax in ICR mouse at 10 mg/kg, po measured for 24 hrs by LC-MS/MS analysis; type: ADME, organism-based; design: time 24 hrs, dose 10 mg/kg, route po; conditions: in vivo
[24] = AUC in ICR mouse at 10 mg/kg, po measured for 24 hrs by LC-MS/MS analysis; type: ADME, organism-based; design: dose 10 mg/kg, time 24 hrs, route po; conditions: in vivo
[25] = Oral bioavailability in ICR mouse at 10 mg/kg measured for 24 hrs by LC-MS/MS analysis; type: ADME, organism-based; conditions: in vivo
MIA PaCa-2 [26] = experiment: Antitumor activity against human MIA PaCa-2 cells xenografted in BALB/c nude mouse assessed as inhibition of tumor growth at 40 mg/kg, po administered daily for 17 days; type: functional; conditions: time 17 day
[27] = Toxicity against BALB/c nude mouse xenografted with human MIA PaCa-2 cells assessed as animal's death at 20 to 40 mg/kg, po administered daily for 17 days; type: organism-based; conditions: in vivo, 408 h, dose 20-40 mg/kg, time 17 day
[28] = Toxicity against BALB/c nude mouse xenografted with human MIA PaCa-2 cells assessed as effect on body weight at 20 to 40 mg/kg, po administered daily for 17 days; type: organism-based; conditions: in vivo, 408 h, dose 20-40 mg/kg, time 17 day
RAW264.7 = experiment: Cytotoxicity against mouse RAW264.7 cells assessed as cell viability at 10 to 30 uM incubated for 72 hrs by CellTiter-LumiII Luminescent assay; type: toxicity, cell-based; conditions: raw264.7, 72 h, dose 10-30 µM
[29] = Hepatotoxicity in ICR mouse assessed as increase in plasma AST level at 100 mg/kg, po administered once every 2 days and measured on day 14; type: toxicity, organism-based; conditions: in vivo, 336 h, time 14 day
[30] = Hepatotoxicity in ICR mouse assessed as increase in plasma ALT level at 100 mg/kg, po administered once every 2 days and measured on day 14; type: toxicity, organism-based; conditions: in vivo, 336 h, time 14 day
[31] = Hepatotoxicity in ICR mouse assessed as increase in plasma ALP level at 100 mg/kg, po administered once every 2 days and measured on day 14; type: toxicity, organism-based; conditions: in vivo, 336 h, time 14 day

Tyrosine-protein phosphatase non-receptor type 6, sequence (P29350 whole entry): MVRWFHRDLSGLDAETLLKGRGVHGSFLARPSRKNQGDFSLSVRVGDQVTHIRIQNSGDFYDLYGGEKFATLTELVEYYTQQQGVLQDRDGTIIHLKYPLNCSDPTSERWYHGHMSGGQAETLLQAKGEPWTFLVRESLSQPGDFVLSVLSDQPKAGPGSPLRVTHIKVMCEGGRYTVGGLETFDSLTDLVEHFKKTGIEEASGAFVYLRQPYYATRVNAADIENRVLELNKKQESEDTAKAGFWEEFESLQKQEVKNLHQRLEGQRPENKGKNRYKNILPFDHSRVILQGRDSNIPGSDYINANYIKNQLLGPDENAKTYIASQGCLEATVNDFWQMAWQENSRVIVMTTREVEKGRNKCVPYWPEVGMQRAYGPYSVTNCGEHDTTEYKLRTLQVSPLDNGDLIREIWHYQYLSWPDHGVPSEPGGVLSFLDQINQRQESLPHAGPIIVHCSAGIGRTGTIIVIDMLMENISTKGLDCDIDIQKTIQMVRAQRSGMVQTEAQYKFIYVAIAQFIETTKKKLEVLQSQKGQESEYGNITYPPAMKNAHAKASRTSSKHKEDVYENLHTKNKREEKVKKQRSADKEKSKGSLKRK

SMILES: N#Cc1ccc(/N=C(\N)N2CCN(c3cnc(-c4cccc(Cl)c4Cl)cn3)CC2)cc1
IC50 [1]: 3.76 µM

SMILES: N=C(N)N1CCN(c2cnc(-c3cccc(Cl)c3Cl)c(N)n2)CC1
IC50 [1]: 0.414 µM

SMILES: N#Cc1ccc(/N=C(\N)N2CCN(c3cnc(Sc4cccnc4C(F)(F)F)c(N)n3)CC2)cc1
IC50 [1]: 0.159 µM

SMILES: CN/C(=N\c1ccc(C#N)cc1)N1CCN(c2cnc(-c3cccc(Cl)c3Cl)c(N)n2)CC1
IC50 [1]: 2 µM

SMILES: COc1cc(/N=C(\N)N2CCN(c3cnc(-c4cccc(Cl)c4Cl)c(N)n3)CC2)ccc1C#N
IC50 [1]: 0.0177 µM
IC50 [2]: > 30 µM
IC50 [3]: > 30 µM
IC50 (MIA PaCa-2 [4]): 6.8 µM
IC50 (KYSE-520 cell line): 1.8 µM
Activity (MIA PaCa-2 [5]): 88.63%
Activity (MIA PaCa-2 [6]): 4.98%
Activity (MIA PaCa-2 [7]): 6.18%
Activity (MIA PaCa-2 [8]): 0.21%
Activity (MIA PaCa-2 [9]): 79.83%
Activity (MIA PaCa-2 [10]): 7.47%
Activity (MIA PaCa-2 [11]): 12.55%
Activity (MIA PaCa-2 [12]): 0.15%
Activity (MIA PaCa-2 [13]): 63.59%
Activity (MIA PaCa-2 [14]): 12.54%
Activity (MIA PaCa-2 [15]): 23.65%
Activity (MIA PaCa-2 [16]): 0.22%
half-life [17]: 1.9 h
clearance [18]: 52.2 mL/min/kg
Vd [19]: 8.4 L/kg
AUC at 24 h [20]: 0.651 µM·h
half-life [21]: 2 h
Tmax [22]: 0.8 h
Cmax [23]: 1090 nM
AUC at 24 h [24]: 4.32 µM·h
bioavailability [25]: 66.3%
inhibition (INH) (MIA PaCa-2 [26]): 48%
Activity [27]: Non-Toxic
Activity [28]: Non-Toxic
Activity (RAW264.7): Non-Toxic
Activity [29]: Non-Toxic
Activity [30]: Non-Toxic
Activity [31]: Non-Toxic

SMILES: NC(=O)N1CCN(c2cnc(-c3cccc(Cl)c3Cl)c(N)n2)CC1
IC50 [1]: 6.36 µM

SMILES: COc1ccccc1/N=C(\N)N1CCN(c2cnc(-c3cccc(Cl)c3Cl)c(N)n2)CC1
IC50 [1]: 0.112 µM

SMILES: Nc1nc(N2CCN(S(N)(=O)=O)CC2)cnc1-c1cccc(Cl)c1Cl
IC50 [1]: 3.4 µM

SMILES: NC(=S)N1CCN(c2cnc(-c3cccc(Cl)c3Cl)c(N)n2)CC1
IC50 [1]: 1.15 µM

Next, values leading:

IC50 [1]: 0.0728 µM
SMILES: N#Cc1cc(/N=C(\N)N2CCN(c3cnc(-c4cccc(Cl)c4Cl)c(N)n3)CC2)cs1

IC50 [1]: 0.21 µM
SMILES: N/C(=N\c1cncnc1)N1CCN(c2cnc(-c3cccc(Cl)c3Cl)c(N)n2)CC1

IC50 [1]: 0.0533 µM
SMILES: N/C(=N\c1ccc(F)cc1)N1CCN(c2cnc(-c3cccc(Cl)c3Cl)c(N)n2)CC1

IC50 [1]: 0.0304 µM
SMILES: COc1cccc(/N=C(\N)N2CCN(c3cnc(-c4cccc(Cl)c4Cl)c(N)n3)CC2)c1

IC50 [1]: 0.0481 µM
SMILES: N/C(=N\c1ccsc1)N1CCN(c2cnc(-c3cccc(Cl)c3Cl)c(N)n2)CC1

IC50 [1]: 0.0346 µM
SMILES: N#Cc1ccc(/N=C(\N)N2CCN(c3cnc(-c4cccc(Cl)c4Cl)c(N)n3)CC2)cc1
